Peptide text beside a SMILES is read from it.
Columns and labels:
[1] = human serum diluted 1:4 in RPMI 1640, 37 °C, peptide 10 μg/ml from DMSO stock, 48 h time course, ESI-MS peak area normalized to Angiotensin I
Procedure: Human serum was diluted 1:4 in Gibco RPMI 1640 media (ThermoFisher Scientific, Cat. No. 11–875–093) and incubated at 37 °C for 15 min before peptide stock was added at final concentration of 10 μg/ml. Time points were taken at room temperature and mixed with 200 μl of 3% TFA before a 15 min incubation on ice. Samples were centrifuged at 16,000g for 2.5 min and the supernatant was prepared for C18 desalting by adding 100 μl of 20% acetonitrile, 2% TFA before storage at −20 °C overnight. Samples were processed through Pierce C18 spin columns (ThermoFisher Scientific, Cat. No. 89870) according to the manufacturer’s instructions. Desalted samples were dried under nitrogen and stored at −20 °C until mass spectrometry analysis.
For MALDI-TOF-MS analysis, samples were reconstituted in 200 μl of 0.1% formic acid. Samples were diluted 1:10 in a MALDI matrix containing a 50 fmol/μl solution of Angiotensin I as a control, spotted onto the plate at a volume of 1 μl, and run on an Axima Performance MALDI TOF/TOF mass spectrometer (Shimadzu Scientific Instruments). Data was visualized with Axima Launchpad 2.8 software (Shimadzu Scientific Instruments). For ESI-MS analysis, samples were run on an Orbitrap Exploris 480 (ThermoFisher Scientific). […] ThermoFisher’s Xcalibur 4.0 Data System was used for peptide quantification via peak area (normalized based on Angiotensin I abundance).

[2] = test system: OVCAR8 cells and human PBMCs co-culture, TNFα secretion; assay: OVCAR8:PBMC co-culture, secreted TNFα (ELISA); assay type: cell-based; conditions: 1:10 OVCAR8:PBMC, 24 h, MN1.4 500, 100 or 10 μM, rPD-L1 1 μM
Procedure: The concentration of PBMCs required for a 1:10 OVCAR8:PBMC ratio was calculated from the OVCAR8 concentration.

Molecule: CC[C@H](C)[C@H](NC(=O)[C@H](CCSC)NC(=O)[C@H](CS)NC(=O)[C@H](CCCNC(=N)N)NC(=O)[C@H](Cc1ccc(O)cc1)NC(C)=O)C(=O)N[C@@H](CO)C(=O)N[C@@H](Cc1ccc(O)cc1)C(=O)NCC(=O)NCC(=O)N[C@@H](C)C(=O)N[C@@H](CC(=O)O)C(=O)N[C@@H](Cc1ccc(O)cc1)C(=O)N[C@@H](CCCCN)C(=O)N[C@@H](CCCNC(=N)N)C(=O)N[C@H](C(=O)N[C@H](C(=O)N[C@H](C(N)=O)C(C)C)[C@@H](C)O)[C@@H](C)CC
- serum modification products (MALDI-TOF-MS): 119 Da

Molecule: CC[C@H](C)[C@@H]1NC(=O)[C@H](CCSC)NC(=O)[C@H](C)NC(=O)[C@H](CCCNC(=N)N)NC(=O)[C@@H](NC(C)=O)CSSC[C@@H](C(N)=O)NC(=O)[C@H]([C@@H](C)O)NC(=O)[C@H]([C@@H](C)CC)NC(=O)[C@H](CCCNC(=N)N)NC(=O)[C@H](CCCCN)NC(=O)[C@H](Cc2ccc(O)cc2)NC(=O)[C@H](CC(=O)O)NC(=O)[C@H](C)NC(=O)CNC(=O)CNC(=O)[C@H](Cc2ccc(O)cc2)NC(=O)[C@H](CO)NC1=O [MN1.2] (HELM PEPTIDE1{[ac].C.R.A.M.I.S.Y.G.G.A.D.Y.K.R.I.T.C.[am]}$PEPTIDE1,PEPTIDE1,2:R3-18:R3$$$V2.0)
- serum stability, degradation after 48 h [1]: detected at very low levels

Molecule: Ac-YRCMISYGGADEKRITV-NH2 [MN_Null]
- TNFα levels compared to untreated co-culture control [2]: less immunosuppressive activity as compared to MN1.4

Reference: article PMC10663846 (The Journal of Biological Chemistry, 2023)
